Blank lines part the entries; values can stand above or below the molecule they belong to.
Assays:
Format in all cases: binding
HTR1B = molecular target: T1, HTR1B (Homo sapiens, UniProt P28222); assay: NanoBRET screen HiBiT-HTR1B in HEK293
T1 construct: purchased Promega (in-house HiBiT-GPCR construct library, NanoBRET)
Method: (§1) Each tracer candidate was screened across the entire library of HiBiT-GPCR constructs using NanoBRET as the detection modality. As depicted in Figure 4A, the specificity of interactions was evaluated through decrease in BRET due to competitive displacement of a bound tracer by excess parental compound. Each tracer was analyzed for binding to each HiBiT-GPCR fusion in the absence and in the presence of competing parental compound. Briefly, HEK293 cells were transfected with HiBiT-GPCR constructs diluted into promoterless DNA to reduce expression and maximize translocation to the cell surface. Each tracer candidate was then screened at concentrations of 1 μM and 0.1 μM across cells expressing these fusions. Cells were treated for 1.5 h with tracer either alone or in the presence of 20 μM competing parental compound (i.e., control). BRET was measured upon addition of purified LgBiT and subsequent complementation with HiBiT genetically fused to a GPCR. The specificity of interactions was assessed through a decrease in BRET signal due to competitive displacement of the bound tracer. To further gauge the robustness of these interactions, the fold response over the control (i.e., BRETtracer/BRETcontrol) was calculated. We chose a 1.5-fold response, which translates to ≥7-fold signal over noise as the minimal threshold required to score an interaction as positive. […]. Below we highlight the screening results obtained for our exemplary fluorescent tracers based on Clozapine, Amitriptyline and AZD1283.
(§2) HiBiT-GPCR DNA constructs were diluted in 10 mM Tris pH 8 to a final concentration of 0.01 μg/μL, arrayed in 96-well plates and stored at −20 °C. For transfection, HEK293 cells were suspended in Opti-MEM (without phenol red) supplemented with 2% fetal bovine serum (Seradigm) and 100 units/mL penicillin–streptomycin (Gibco) at a final concentration of 220,000 cells/mL and dispensed into white 96-well plates at 90 μL/well. Subsequent transfections and screens were carried using an Agilent Bravo Automated Liquid Handling Platform. First, the 96-well HiBiT DNA arrays were diluted 25-fold in Opti-MEM (without serum or phenol red) to a final concentration of 0.0004 μg/μL and 20 μL of the diluted DNAs were transferred into new 96-well plates. Next, promoterless carrier DNA (1 μg/μL) was diluted 25-fold (0.04 μg/μL) and then dispensed into the diluted arrays at 20 μL/well. Following brief mixing, Viafect transfection reagent (Promega) diluted 16-fold into Opti-MEM was dispensed into the plates at 40 μL/well. After mixing by pipetting, plates were incubated for 10 min on the pipetting station deck. The DNA-transfection reagent complexes were then added to plates containing cells. To facilitate the screen, 10 μL of DNA-transfection reagent complexes were added in duplicates to the top 4 and bottom 4 rows, resulting in two identical 48-well arrays per plate. Plates with transfected cells were incubated for 18–20 h at 37 °C/5% CO2. A screen of each tracer across the entire library using two different concentrations requires duplicate plates of transfected cells. Depending on the number of tracers being screened, transfections can be scaled up using the same ratios. The next day, for each tracer, four 20× screening solutions in tracer dilution buffer (Promega) were prepared: two duplicates at final concentration of 20 μM and two duplicates at a final concentration of 2 μM. A competing unmodified compound was added to one of each duplicate at a final concentration of 400 μM. The four resulting solutions were diluted 4-fold in Opti-MEM without serum or phenol red to generate 5× solutions (5 µM and 0.5 µM tracer +/− 100 μM competing compound). To screen the library, a BioTek MultiFlo FX liquid dispenser was used to dispense 22.5 µL of tracer solution to the top 4 rows and 22.5 µL tracer + competing compound solution to the 4 bottom rows. Plates were briefly mixed on an orbital shaker and incubated for 1.5 h at room temperature. […]

OXER1 = molecular target: T2, OXER1 (Homo sapiens, UniProt Q8TDS5); assay: NanoBRET screen HiBiT-OXER1 in HEK293
T2 construct: purchased Promega (in-house HiBiT-GPCR construct library, NanoBRET)
T2 sequence (Q8TDS5 whole entry): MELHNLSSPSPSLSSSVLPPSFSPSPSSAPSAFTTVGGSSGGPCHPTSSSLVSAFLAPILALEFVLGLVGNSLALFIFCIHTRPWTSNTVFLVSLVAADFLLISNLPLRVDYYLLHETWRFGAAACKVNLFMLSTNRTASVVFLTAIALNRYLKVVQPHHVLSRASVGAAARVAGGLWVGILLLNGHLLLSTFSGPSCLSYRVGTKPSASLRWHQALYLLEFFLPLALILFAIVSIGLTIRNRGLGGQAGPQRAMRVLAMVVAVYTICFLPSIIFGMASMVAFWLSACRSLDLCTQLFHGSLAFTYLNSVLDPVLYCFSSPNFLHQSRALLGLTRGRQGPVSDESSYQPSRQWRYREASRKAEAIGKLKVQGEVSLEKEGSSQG
Method: as §1, §2

MTNR1B = molecular target: T3, MTNR1B (Homo sapiens, UniProt P49286); assay: NanoBRET screen HiBiT-MTNR1B in HEK293; conditions: MTNR1B
T3 construct: purchased Promega (in-house HiBiT-GPCR construct library, NanoBRET)
T3 sequence (P49286 1-362): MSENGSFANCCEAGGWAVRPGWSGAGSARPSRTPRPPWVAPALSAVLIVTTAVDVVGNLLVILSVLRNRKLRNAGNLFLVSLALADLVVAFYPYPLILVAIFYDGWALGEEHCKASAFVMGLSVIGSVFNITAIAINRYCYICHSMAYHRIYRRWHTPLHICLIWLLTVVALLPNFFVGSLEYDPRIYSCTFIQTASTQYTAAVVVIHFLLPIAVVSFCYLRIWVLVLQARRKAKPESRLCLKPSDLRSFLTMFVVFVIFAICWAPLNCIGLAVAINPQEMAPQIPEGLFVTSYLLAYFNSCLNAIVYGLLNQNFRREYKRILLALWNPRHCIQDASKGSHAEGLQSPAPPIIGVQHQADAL
Method: as §1, §2

LGR4 = molecular target: T4, LGR4 (Homo sapiens, UniProt Q9BXB1); assay: NanoBRET screen HiBiT-LGR4 in HEK293
T4 construct: purchased Promega (in-house HiBiT-GPCR construct library, NanoBRET)
T4 sequence (Q9BXB1 25-951): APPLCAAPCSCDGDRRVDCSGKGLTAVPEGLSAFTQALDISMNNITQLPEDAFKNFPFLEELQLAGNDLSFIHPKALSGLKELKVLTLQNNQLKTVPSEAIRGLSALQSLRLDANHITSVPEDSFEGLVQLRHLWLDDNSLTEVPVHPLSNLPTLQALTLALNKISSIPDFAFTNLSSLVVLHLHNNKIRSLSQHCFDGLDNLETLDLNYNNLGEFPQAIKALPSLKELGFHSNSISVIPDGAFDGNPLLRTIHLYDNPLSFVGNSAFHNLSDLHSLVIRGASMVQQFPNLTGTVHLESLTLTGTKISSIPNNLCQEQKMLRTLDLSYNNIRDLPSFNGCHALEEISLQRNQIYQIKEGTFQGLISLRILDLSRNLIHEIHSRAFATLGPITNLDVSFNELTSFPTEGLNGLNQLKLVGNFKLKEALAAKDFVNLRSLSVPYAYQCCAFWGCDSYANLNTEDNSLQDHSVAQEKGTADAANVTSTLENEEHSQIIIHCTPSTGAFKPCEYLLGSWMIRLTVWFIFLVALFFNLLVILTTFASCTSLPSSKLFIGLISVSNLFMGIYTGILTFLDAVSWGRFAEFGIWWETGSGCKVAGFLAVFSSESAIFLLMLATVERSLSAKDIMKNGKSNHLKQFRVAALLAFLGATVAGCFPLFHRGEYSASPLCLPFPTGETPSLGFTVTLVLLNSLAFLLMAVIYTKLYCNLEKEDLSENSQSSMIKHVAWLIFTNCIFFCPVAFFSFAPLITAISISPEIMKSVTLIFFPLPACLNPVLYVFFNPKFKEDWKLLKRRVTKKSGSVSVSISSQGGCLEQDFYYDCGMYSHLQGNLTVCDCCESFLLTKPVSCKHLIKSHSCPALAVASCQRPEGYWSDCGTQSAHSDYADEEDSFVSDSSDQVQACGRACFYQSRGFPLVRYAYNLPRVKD
Method: as §1, §2

T1 sequence (P28222 whole entry): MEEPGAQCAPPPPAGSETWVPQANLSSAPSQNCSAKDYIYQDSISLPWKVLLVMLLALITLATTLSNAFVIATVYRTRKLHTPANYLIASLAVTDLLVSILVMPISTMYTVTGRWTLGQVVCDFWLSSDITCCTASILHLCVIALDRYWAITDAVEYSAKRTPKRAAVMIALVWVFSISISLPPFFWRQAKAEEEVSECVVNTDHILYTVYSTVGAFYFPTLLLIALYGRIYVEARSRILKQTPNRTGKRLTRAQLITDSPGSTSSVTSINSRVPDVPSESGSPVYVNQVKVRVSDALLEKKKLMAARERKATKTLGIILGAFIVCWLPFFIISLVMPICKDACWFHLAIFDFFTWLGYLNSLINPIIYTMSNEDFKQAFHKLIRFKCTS

- NanoBRET Fold Response (HTR1B; HTR1B, 0.1μM): 0.89
- NanoBRET Fold Response (HTR1B; HTR1B, 1μM): 0.99
- NanoBRET Fold Response (OXER1; OXER1, 0.1μM): 0.50
- NanoBRET Fold Response (OXER1; OXER1, 1μM): 1.03
- NanoBRET Fold Response (MTNR1B; 0.1μM): 0.97
- NanoBRET Fold Response (MTNR1B; 1μM): 0.53
- NanoBRET Fold Response (LGR4; LGR4, 0.1μM): 1.01
- NanoBRET Fold Response (LGR4; LGR4, 1μM): 0.97
Structure (SMILES): CCOC(=O)c1cc(C#N)c(N2CCC(C(=O)NS(=O)(=O)Cc3ccccc3/C=C/C(=O)NCCNC(=O)CCc3ccc4n3[B-](F)(F)[N+]3=C(c5ccc[nH]5)C=CC3=C4)CC2)nc1C [AZD1283-1-NB590]

- NanoBRET Fold Response (HTR1B; HTR1B, other tracers/Aminopotentidine (unmodified), 0.1μM): 1.50
- NanoBRET Fold Response (HTR1B; HTR1B, other tracers/Aminopotentidine (unmodified), 1μM): 1.48
Structure (SMILES): N#CN/C(=N\CCNC(=O)c1ccc(N)cc1)NCCCOc1cccc(CN2CCCCC2)c1 [Aminopotentidine (unmodified)]

- NanoBRET Fold Response (HTR1B; HTR1B, tracer 0.1μM): 0.98
- NanoBRET Fold Response (HTR1B; HTR1B, tracer 1μM): 1.03
- NanoBRET Fold Response (OXER1; OXER1, tracer 0.1μM): 1.10
- NanoBRET Fold Response (OXER1; OXER1, tracer 1μM): 1.01
- NanoBRET Fold Response (MTNR1B; tracer 0.1μM): 0.99
- NanoBRET Fold Response (MTNR1B; tracer 1μM): 0.99
- NanoBRET Fold Response (LGR4; LGR4, tracer 0.1μM): 1.01
- NanoBRET Fold Response (LGR4; LGR4, tracer 1μM): 1.02
Structure (SMILES): N#CN=C(NCCCOc1cccc(CN2CCCCC2)c1)NCCNC(=O)CCOCCOCCOCCOCCNC(=O)CCc1ccc2n1[B-](F)(F)[N+]1=C(c3ccc[nH]3)C=CC1=C2 [Aminopotentidine-2-NB590]

Structure (SMILES): CN(C)CCC=C1c2ccccc2CCc2ccc(C(=O)NCCNC(=O)CCOCCOCCOCCOCCNC(=O)CCc3ccc4n3[B-](F)(F)[N+]3=C(c5ccc[nH]5)C=CC3=C4)cc21 [Amitriptyline-a-2-NB590]
- NanoBRET Fold Response (HTR1B; tracer at 0.1μM): 0.98

Structure (SMILES): CN(C)CCC=C1c2ccccc2CCc2ccc(C(=O)NCCNC(=O)CCOCCOCCOCCOCCNC(=O)CCc3ccc4n3[B-](F)(F)[N+]3=C(c5ccc[nH]5)C=CC3=C4)cc21 [Amitriptyline-b-2-NB590]
- NanoBRET Fold Response (HTR1B; tracer at 0.1μM, listed as amitriptyline-b-2-NB590): 1.76
- NanoBRET Fold Response (HTR1B; tracer at 1μM, listed as amitriptyline-b-2-NB590): 1.34
- NanoBRET Fold Response (OXER1; tracer at 0.1μM): 1.08
- NanoBRET Fold Response (OXER1; tracer at 1μM): 0.97
- NanoBRET Fold Response (MTNR1B; tracer 0.1μM): 1.02
- NanoBRET Fold Response (MTNR1B; tracer 1μM): 1.04
- NanoBRET Fold Response (LGR4; tracer at 0.1μM): 1.00
- NanoBRET Fold Response (LGR4; tracer at 1μM): 0.98
